The values below are quoted from earlier work in PMC6443429 (Molecular pharmaceutics, 2019).

Data set [1] has as its system MC1R, B16/F1 melanoma cells.
The test system of data set [2] is MC1R, B16/F10 melanoma cells.

For the substance “1,4,7,10-tetraazacyclononane-1,4,7,10-tetraacetic acid-Gly-Gly-Nle-c[Asp-His-DPhe-Arg-Trp-Lys]-CONH2 (sidechain bridge or staple) [DOTA-GGNle-CycMSHhex]”, the MC1R binding affinity result in data set [1] and in data set [2] was “nanomolar” in each case.
